# Laboratory results from patent US20260015350A1, “AZAQUINAZOLINE PAN-KRAS INHIBITORS” (Mirati Therapeutics, Inc., priority 2022, published 2026).
# Tests used:
# [1] = test system: KRas-mediated phosphorylation of ERK in H358 cells; assay: Inhibition of KRas-mediated phosphorylation of ERK (Cisbio HTRF pERK), H358 cells; type: cell-based; details: Homo sapiens; for inhibition at 0.1 µM: NCI-H358, 3 h, single point, 100 nM compound, 3 hrs; for IC50: NCI-H358, HTRF pERK
# Outline: (§1)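 H358, H727, H460 and AsPC-1 cells seeded at 6,000/well, treated 3 hrs with 10-dose 3-fold dilutions from 10 uM (0.8% DMSO); 0.2 uM trametinib as min control. Lysed 40 min at 4° C; lysate incubated 2 hrs at room temperature with d2/cryptate antibodies, HTRF read.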
# KRas^G12R = biological target: T1, KRas^G12R (Homo sapiens, UniProt P01116, G12R); assay: KRas binding assay (TR-FRET tracer displacement), KRas G12R
# T1 construct: Biotinylated KRas (corresponding to amino acids 1-169, produced at Accelegan Inc.); biotin (biotinylated); purchased Accelegan Inc
# T1 sequence (P01116 1-169 isoform P01116-2 G12R): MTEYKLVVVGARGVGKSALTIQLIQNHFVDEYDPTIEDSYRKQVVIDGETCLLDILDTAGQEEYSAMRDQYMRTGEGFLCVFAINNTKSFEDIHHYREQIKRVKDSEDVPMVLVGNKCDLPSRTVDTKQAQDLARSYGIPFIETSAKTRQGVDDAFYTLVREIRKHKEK
# [2] = test system: KRas-mediated phosphorylation of ERK in H460 cells; assay: Inhibition of KRas-mediated phosphorylation of ERK (Cisbio HTRF pERK), H460 cells; type: cell-based; details: Homo sapiens; for inhibition at 0.1 µM: NCI-H460, 3 h, single point, 100 nM compound, 3 hrs; for IC50: NCI-H460, HTRF pERK
# Outline: as §1
# [3] = test system: KRas-mediated phosphorylation of ERK in A549 cells; assay: Inhibition of KRas-mediated phosphorylation of ERK (Cisbio HTRF pERK), A549 cells; type: cell-based; details: Homo sapiens; for inhibition at 0.1 µM: A549, 3 h, single point, 100 nM compound, 3 hrs; for IC50: HTRF pERK
# Outline: (§2)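 6,000 cells/well; cpd 10 uM top, 3-fold x10, 0.8% DMSO final; 3 hr incubation; Min ctrl Trametinib 0.2 uM; lysis 40 min 4° C shaking; d2 + Cryptate Ab mix, 2 hr RT; HTRF read.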
# [4] = test system: KRas-mediated phosphorylation of ERK in HCT116 cells; assay: Inhibition of KRas-mediated phosphorylation of ERK (Cisbio HTRF pERK), HCT116 cells; type: cell-based; details: Homo sapiens; for inhibition at 0.1 µM: HCT-116, 3 h, single point, 100 nM compound, 3 hrs; for IC50: HCT-116, HTRF pERK
# Outline: as §2
# KRas^G12D = biological target: T2, KRas^G12D (Homo sapiens, UniProt P01116, G12D); assay: KRas binding assay (TR-FRET tracer displacement), KRas G12D
# T2 construct: Biotinylated KRas (corresponding to amino acids 1-169, produced at Accelegan Inc.); biotin (biotinylated); purchased Accelegan Inc
# T2 sequence (P01116 1-169 isoform P01116-2 G12D): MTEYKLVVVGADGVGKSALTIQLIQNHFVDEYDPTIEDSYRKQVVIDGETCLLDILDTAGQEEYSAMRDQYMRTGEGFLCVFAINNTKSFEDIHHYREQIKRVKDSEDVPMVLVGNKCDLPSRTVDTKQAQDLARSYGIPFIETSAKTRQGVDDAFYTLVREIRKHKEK
# KRas^G12V = biological target: T3, KRas^G12V (Homo sapiens, UniProt P01116, G12V); assay: KRas binding assay (TR-FRET tracer displacement), KRas G12V
# T3 construct: Biotinylated KRas (corresponding to amino acids 1-169, produced at Accelegan Inc.); biotin (biotinylated); purchased Accelegan Inc
# T3 sequence (P01116 1-169 isoform P01116-2 G12V): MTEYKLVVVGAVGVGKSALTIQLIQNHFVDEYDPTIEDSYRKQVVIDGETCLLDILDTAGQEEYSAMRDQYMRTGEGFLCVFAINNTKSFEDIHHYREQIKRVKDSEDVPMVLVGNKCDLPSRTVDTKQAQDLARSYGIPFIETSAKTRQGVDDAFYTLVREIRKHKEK
# [5] = test system: KRas-mediated phosphorylation of ERK in H727 cells; assay: Inhibition of KRas-mediated phosphorylation of ERK (Cisbio HTRF pERK), H727 cells; type: cell-based; details: Homo sapiens; for IC50: NCI-H727, H727 cells, HTRF pERK; for inhibition at 0.1 µM: NCI-H727, 3 h, single point, 100 nM compound, 3 hrs, H727 cells
# Outline: as §1
# [6] = test system: KRas-mediated phosphorylation of ERK in AsPC-1 cells; assay: Inhibition of KRas-mediated phosphorylation of ERK (Cisbio HTRF pERK), AsPC-1 cells; type: cell-based; details: Homo sapiens; for IC50: ASPC1, AsPC-1 cells, HTRF pERK; for inhibition at 0.1 µM: ASPC1, 3 h, single point, 100 nM compound, 3 hrs, AsPC-1 cells
# Outline: as §1
IC50 (KRas^G12R) [nM],IC50 (KRas^G12D) [nM],IC50 (KRas^G12V) [nM],IC50 [5] [nM],IC50 [6] [nM],IC50 [1] [nM],IC50 [2] [nM],IC50 [3] [nM],IC50 [4] [nM],SMILES,inhibition at 0.1 µM [1] [%],inhibition at 0.1 µM [2] [%],inhibition at 0.1 µM [3] [%],inhibition at 0.1 µM [4] [%],inhibition at 0.1 µM [5] [%],inhibition at 0.1 µM [6] [%]
9,4,5,476,101,,,,,"CCc1c(F)ccc2cc(O)cc(-c3ncc4c(N5CCC[C@@](C)(O)C5)nc(OCC56CC5CCN(C)C6)nc4c3F)c12 (stereo partly drawn) [Example 701, (3R)-1-(7-(8-ethyl-7-fluoro-3-hydroxynaphthalen-1-yl)-8-fluoro-2-((3-methyl-3-azabicyclo[4.1.0]heptan-1-yl)methoxy)pyrido[4,3-d]pyrimidin-4-yl)-3-methylpiperidin-3-ol]",6,15,20,0,,
14,5,7,982,342,,,,,"CCc1c(F)ccc2cc(O)cc(-c3ncc4c(N5CCC[C@@](C)(O)C5)nc(OCC5(CN(C)C)CC5CC)nc4c3F)c12 (stereo partly drawn) [Example 703, (3R)-1-(2-((1-((dimethylamino)methyl)-2-ethylcyclopropyl)methoxy)-7-(8-ethyl-7-fluoro-3-hydroxynaphthalen-1-yl)-8-fluoropyrido[4,3-d]pyrimidin-4-yl)-3-methylpiperidin-3-ol]",-10,4,47,0,,
11,5,5,223,53,,,,,"CCc1c(F)ccc2cc(O)cc(-c3ncc4c(N5CCC[C@@](C)(O)C5)nc(OCC5(CN(C)C)CC5(C)C)nc4c3F)c12 (stereo partly drawn) [Example 704, (3R)-1-(2-((1-((dimethylamino)methyl)-2,2-dimethylcyclopropyl)methoxy)-7-(8-ethyl-7-fluoro-3-hydroxynaphthalen-1-yl)-8-fluoropyrido[4,3-d]pyrimidin-4-yl)-3-methylpiperidin-3-ol]",47,40,26,19,21,25
30,12,13,1220,598,,,,,"CCc1c(F)ccc2cc(O)cc(-c3ncc4c(N5CCC[C@@](C)(O)C5)nc(OCC5(CN(C)C)CC56CCC6)nc4c3F)c12 (stereo partly drawn) [Example 705, (3R)-1-[2-[[2-[(dimethylamino)methyl]spiro[2.3]hexan-2-yl]methoxy]-7-(8-ethyl-7-fluoro-3-hydroxy-1-naphthyl)-8-fluoro-pyrido[4,3-d]pyrimidin-4-yl]-3-methyl-piperidin-3-ol]",34,0,29,-3,3,6
4,6,< 2,45,84,,,,,"CCc1c(F)ccc2c(F)c(O)cc(-c3ncc4c(N5C[C@@H]6C[C@H](C5)[C@H](O)C6)nc(OC[C@@]56CCCN5C[C@H](F)C6)nc4c3F)c12 [Example 778, (1R,5R,6R)-3-(7-(8-ethyl-4,7-difluoro-3-hydroxynaphthalen-1-yl)-8-fluoro-2-(((2R,7aS)-2-fluorohexahydro-1H-pyrrolizin-7a-yl)methoxy)pyrido[4,3-d]pyrimidin-4-yl)-3-azabicyclo[3.2.1]octan-6-ol]",64,74,69,49,36,16
787,1300,435,> 10000,,,,,,"CCc1c(F)ccc2cc(O)cc(-c3ncc4c(N5Cc6n[nH]c(CO)c6C5)nc(OC[C@@]56CCCN5C[C@H](F)C6)nc4c3F)c12 [Example 785, 5-ethyl-6-fluoro-4-(8-fluoro-2-(((2R,7aS)-2-fluorohexahydro-1H-pyrrolizin-7a-yl)methoxy)-4-(3-(hydroxymethyl)pyrrolo[3,4-c]pyrazol-5 (2H,4H,6H)-yl)pyrido[4,3-d]pyrimidin-7-yl)naphthalen-2-ol]",9,0,8,5,2,-6
160,423,110,2820,4960,,,,,"Cc1c(O)cc2ccccc2c1-c1ncc2c(N3C[C@@H]4C[C@H](C3)[C@H](O)C4)nc(OC[C@@]34CCCN3C[C@H](F)C4)nc2c1F [Example 786, (1R,5R,6R)-3-(8-fluoro-2-(((2R,7aS)-2-fluorohexahydro-1H-pyrrolizin-7a-yl)methoxy)-7-(3-hydroxy-2-methylnaphthalen-1-yl)pyrido[4,3-d]pyrimidin-4-yl)-3-azabicyclo[3.2.1]octan-6-ol]",-3,8,19,0,15,1
6,4,3,2080,1670,,,,,"CCc1c(F)ccc2cc(O)cc(-c3ncc4c(N5CCC[C@@](C)(O)C5)nc(OC[C@]56CCCN5[C@@H](CNS(=O)(=O)N(C)C)CC6)nc4c3F)c12 [Example 787, (R)-1-(7-(8-ethyl-7-fluoro-3-hydroxynaphthalen-1-yl)-8-fluoro-2-(((3R,7aR)-3-(((dimethylsulfamoyl)amino)methyl)tetrahydro-1H-pyrrolizin-7a(5H)-yl)methoxy)pyrido[4,3-d]pyrimidin-4-yl)-3-methylpiperidin-3-ol]",8,11,14,9,33,23
9,36,12,932,1210,264,159,397,475,"CCc1c(F)ccc2cc(O)cc(-c3ncc4c(N5CCCC6(CC6C#N)C5)nc(OC[C@@]56CCCN5C[C@H](F)C6)nc4c3F)c12 (stereo partly drawn) [Example 851, 5-(7-(8-ethyl-7-fluoro-3-hydroxynaphthalen-1-yl)-8-fluoro-2-(((2R,7aS)-2-fluorotetrahydro-1H-pyrrolizin-7a(5H)-yl)methoxy)pyrido[4,3-d]pyrimidin-4-yl)-5-azaspiro[2.5]octane-1-carbonitrile]",,,,,,
37,17,34,> 10000,> 10000,> 10000,> 10000,> 10000,> 10000,"CCc1c(F)ccc2cc(O)cc(-c3ncc4c(N5CC6CNC(CO)C6C5)nc(OC[C@@]56CCCN5C[C@H](F)C6)nc4c3F)c12 (stereo partly drawn) [Example 875, 5-ethyl-6-fluoro-4-(8-fluoro-2-(((2R,7aS)-2-fluorotetrahydro-1H-pyrrolizin-7a(5H)-yl)methoxy)-4-(4-(hydroxymethyl)hexahydropyrrolo[3,4-c]pyrrol-2 (1H)-yl)pyrido[4,3-d]pyrimidin-7-yl)naphthalen-2-ol]",,,,,,
